Experimental data taken from patent US20190290621A1, “COMPOSITIONS AND METHODS FOR TREATING HIV-1 LATENCY” (priority 2017, published 2019).

How the values were obtained:
[1] = system: Class I HDAC; experiment: Western blot for acetylated histone H3 as a measure of Class I HDAC inhibition; format: cell-based; settings: Jurkat cells and primary resting CD4+ T-cells, 8 hours
[2] = system: Class II HDAC; experiment: Western blot for acetylated tubulin as a measure of Class II HDAC inhibition; format: cell-based; settings: Jurkat cells and primary resting CD4+ T-cells, 8 hours
[3] = target: HDAC3 (Homo sapiens, UniProt O15379); settings: cited from earlier work
[4] = mice; cited from earlier work
[5] = system: HIV Gag; experiment: Western blot for HIV Gag in JLAT10.6 cells; format: cell-based; settings: 24 h
[6] = system: JLAT10.6 cells; experiment: HIV-1 latency reactivation screen in JLAT10.6 cells (GFP by FACS); format: cell-based
Experimental: For screening purposes, JLAT10.6 cells, a T-cell line that has been widely used for HIV-1 reactivation studies (32-34) were utilized. In this cell line, HIV-1Δenv from the NL4-3 backbone with GFP replacing the Nef gene is stably integrated into the genome and is expressed at undetectable levels. Upon HIV reactivation with latency reversing agents (LRAs), viral production leads to expression of GFP that was measured by fluorescent activation cell sorting (FACS) analysis using a Becton Dickinson FACS machine. Analysis was performed using BD […] PRO software (BD Biosciences; Franklin Lakes, N.J.). The stronger the HIV reactivation, the higher the percentage of GFP-positive cells observed. JLAT10.6 cells were incubated with HDAC inhibitors at concentrations of 1 and 10 μM for 24 hours, using TNF-α and SAHA (Vorinostat) as positive controls.

[7] = system: HIV-1 LTR; experiment: ChIP assay of acetylated histone H3 at the HIV-1 LTR; format: cell-based; settings: JLAT10.6 cells, 6 hours, HIV-1 LTR qPCR
Experimental: Since histone H3 is […] by Class I HDACs and known to bind to the HIV LTR promoter, we determined H3 acetylation status of the HIV-1 LTR in JLAT10.6 cells. […] The ChIP assay was performed using a ChIP kit (ab500) (Abcam; Cambridge, Mass.). Briefly, an anti-rabbit IgG (Cell Signaling Technologies; Danvers, Mass.) was used as an isotype control. Actin was used as an internal control. Total chromatin (input) and the immunoprecipitated chromatin were used as templates and HIV-1 LTR was amplified by quantitative PCR using HIV-1 LTR (forward: 5-[…] […]-3, reverse: 5-TAG […] A-3) and actin primers. Using ChIP, we recovered 15% of the DNA from SDL148-treated cells using anti-acetylated histone H3 antibody compared to less than 5% recovery with DMSO-treated cells, and less than 1% from the IgG-negative controls. […] An alternative mechanism is modulation of lysines in Tat that impact its ability to interact with TAR of the HIV-1 LTR (37-39).

Sequence of HDAC3 (O15379 whole entry): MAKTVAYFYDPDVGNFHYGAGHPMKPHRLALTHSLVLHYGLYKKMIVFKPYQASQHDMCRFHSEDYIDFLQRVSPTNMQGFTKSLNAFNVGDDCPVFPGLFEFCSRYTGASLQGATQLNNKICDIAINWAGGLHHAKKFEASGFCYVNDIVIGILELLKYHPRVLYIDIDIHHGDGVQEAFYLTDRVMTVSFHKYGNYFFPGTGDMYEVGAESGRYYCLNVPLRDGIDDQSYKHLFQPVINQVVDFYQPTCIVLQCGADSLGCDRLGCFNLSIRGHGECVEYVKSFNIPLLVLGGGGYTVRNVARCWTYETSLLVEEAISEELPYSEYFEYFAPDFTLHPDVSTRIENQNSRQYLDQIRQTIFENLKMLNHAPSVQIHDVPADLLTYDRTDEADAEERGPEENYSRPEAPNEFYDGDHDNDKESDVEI
Sequence of HDAC3 (Q9Y618 395-489 partner limits assumed): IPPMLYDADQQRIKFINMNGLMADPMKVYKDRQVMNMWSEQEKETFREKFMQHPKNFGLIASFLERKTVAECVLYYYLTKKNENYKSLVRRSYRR

| Compound | histone H3 acetylation [1] | acetylation of tubulin [2] | potency against HDAC3 [3] | bioavailability [4] | expression of HIV Gag [5] | reactivation of HIV expression at 100 nM ([6]; 100 nM) | potency in reactivating HIV from latency compared with vorinostat ([6]; 1 and 10 μM, 24 hours) | EC50 ([6]; read-out: EC50 to reactivate HIV from latency) | DNA recovered using anti-acetylated histone H3 antibody [7] |
| --- | --- | --- | --- | --- | --- | --- | --- | --- | --- |
| O=C(CCCCCCC(=O)Nc1ccccc1)NO [SAHA, suberoylanilide hydroxamic acid] | enhanced the acetylation of both histone H3 and tubulin | enhanced the acetylation of both histone H3 and tubulin |  |  |  |  |  |  |  |
| largazole [SDL148] |  |  | picomolar range | excellent bioavailability | enhanced expression of HIV Gag | the only compound able to reactivate HIV expression significantly | comparable or more potent than vorinostat | 150 nM | 15% |
